PubChem BioAssay AID179 (DTP/NCI, 2004)
The source made the active and inactive calls.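 How the source made its calls: active means compounds giving half or more protection of infected cells from virus-caused growth loss, again on retest; inactive means the rest.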

Tested on: CEM cells HIV-1 protection, formazan growth assay
Assay: NCI AIDS Antiviral Assay
Conditions: for IC50: measured here: growth of uninfected CEM cells
In short: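 Screen of anti-HIV-1 activity in human CEM cells using a formazan-based growth measurement at five drug concentrations. Hits with 50% or greater protection were repeated, and confirmation required reproducible complete protection.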

Row | Structure (SMILES) | EC50 [µM] | IC50 [µM] | outcome
1 | NC(CC1=CS(=O)(=O)c2ccc(Cl)cc21)C(=O)O (centres undefined) | > 200 | > 200 | –
2 | C=CCNC1=C2C[C@@H](C)C[C@@H](OC)C(OC(=O)CCCN(C)C)[C@H](C)/C=C(\C)[C@@H](OC(N)=O)[C@H](OC)/C=C\C=C(/C)C(=O)NC(=CC1=O)C2=O (some centres undefined) | > 200 | 11 | –
3 | CSC1=N[C@H](c2ccccc2)CS1 | > 200 | > 200 | –
4 | O=C(C=Nc1ccccc1C(=O)[O-])c1cccs1.O=C(C=Nc1ccccc1C(=O)[O-])c1cccs1.[Cu+2] | – | – | inactive
5 | CC1=Nc2ccccc2SC2(C1)C(C1COC(C)(C)O1)OC1OC(C)(C)OC12 (centres undefined) | > 74.1 | 63.1 | –
6 | CCOC(=O)C1=C(O)CSC1=Nc1ccc(N=C2SCC(O)=C2C(=O)OCC)cc1 | – | – | inactive
7 | CC(=O)ON1CCC(n2cc(C)c(=O)[nH]c2=O)C1 (centres undefined) | > 200 | > 200 | –
8 | CN(C)Cc1cc(C(=O)/C=C/c2ccc(/C=C/C(=O)c3cc(CN(C)C)c(O)c(CN(C)C)c3)cc2)cc(CN(C)C)c1O | > 200 | 10 | –
9 | Cc1cn(C2CCC(CO)(CF)O2)c(=O)[nH]c1=O (centres undefined) | > 200 | > 200 | –
10 | CCCCCC(=O)Cc1cc(OC)cc2c1C(=O)Oc1cc(O)c(C(=O)O)c(CC(=O)CCCCC)c1O2 | > 339 | 112 | –
11 | Nc1ncnc2c1ncn2C1OC(CCP(=O)(O)O)C(O)C1O (centres undefined) | > 100 | > 100 | –
12 | CCCCCCCCCCCO/N=C\c1c2c(O)c3c(O)c(C)c4c(c3c1O)C(=O)C(C)(O/C=C\C(OC)C(C)C(OC(C)=O)C(C)C(O)C(C)C(O)C(C)/C=C\C=C(\C)C(=O)N2)O4 (centres undefined) | > 200 | 3.02 | –
13 | O=C(NC(=O)c1ccccc1O)c1ccccc1 | > 282 | > 282 | –
14 | O=C(O)c1ccccc1C(=O)NC(Cc1cccc(NP(=O)(N2CC2)N2CC2)c1)C(=O)O (centres undefined) | 27.5 | > 200 | –
15 | O=c1oc2ccc([N+](=O)[O-])cc2cc1-c1csc(-c2ccccc2)n1 | – | – | inactive
16 | O=C1Oc2c(ccc3ccccc23)C2OCNCC12 (centres undefined) | > 200 | 129 | –
17 | COC(=O)Cc1c(-c2[nH]c3ccccc3c2CC(=O)OC)[nH]c2ccccc12 | – | – | inactive
18 | CC(C)(C)OC(=O)N1CC(O)O[C@H](c2ccccc2)[C@@H]1c1ccccc1 (some centres undefined) | > 200 | 32.4 | –
19 | CN=C1SC(=Nc2ccc(N(C)C)cc2)N1C | – | – | inactive
20 | C=C(C)OCOCCOC | > 200 | > 200 | –
21 | N#CCC(=O)Nc1ccccc1O | > 708 | > 708 | –

Row | Structure (SMILES) | EC50 [µM] | IC50 [µM] | outcome
22 | CCOC(=O)Cc1nc2c(=O)[nH]cnc2n1C1OC(COC(C)=O)C(OC(C)=O)C1OC(C)=O (centres undefined) | > 200 | > 200 | –
23 | O=C1CCC(c2ccccc2)=NN1c1nsc2ccccc12 | > 85.1 | > 85.1 | –
24 | COC(=O)C1=C(C(=O)OC)SC(=C2SC3=C(SC(=C4SCCS4)S3)S2)S1 | > 100 | > 100 | –
25 | Cc1nc2sc(C(=O)c3ccc(Cl)cc3)c(N)c2c(-c2ccccc2Cl)c1C(=O)Nc1ccccc1 | > 200 | 3.02 | –
26 | C=CC[C@@]1(OC(C)=O)C(=O)C(=O)OC1C1COC(C)(C)O1 (some centres undefined) | > 200 | 11.2 | –
27 | CCC[CH2][Sn]1([CH2]CCC)[O]CC([CH2][Sn]([c]2ccccc2)([c]2ccccc2)[c]2ccccc2)[O]1 (centres undefined) | > 3.98 | 0.0234 | –
28 | O=C(C(/C=N/C(=S)NCc1ccccc1)=C(/O)c1ccccc1)c1ccccc1 | > 200 | 30.9 | –
29 | CNc1ccc(Cl)cc1S(=O)(=O)c1ccccc1Br | > 200 | 3.89 | –
30 | c1cc(CSSCc2ccncc2)ccn1 | > 200 | 0.891 | –
31 | COc1ccc(C2(C)OC(=O)c3ccccc32)c2ccccc12 (centres undefined) | – | – | inactive
32 | CCOC(=O)CC(C(=O)OCC)S(=O)(=O)O (centres undefined) | > 200 | > 200 | –
33 | CC(C)OP(=S)(NC(=S)c1ccccc1)OC(C)C | > 741 | 178 | –
34 | NCCn1c(-c2ccccc2)nc2ccccc2c1=O | > 200 | 123 | –
35 | CCOC(=O)NC(Nc1ccc(S(=O)(=O)Nc2ccc(OC)nn2)cc1)(C(F)(F)F)C(F)(F)F | > 200 | > 200 | –
36 | CCOc1ccc(NC(=O)C(=O)CC(=O)c2sc(NNC(C)=O)nc2C)cc1 | > 44.7 | > 44.7 | –
37 | c1cn(C23C4C5C6C4C2C6C53)cn1 (centres undefined) | > 200 | > 200 | –
38 | CSc1nnc2c(=O)n(C)c(=O)n(C)c2n1 | > 200 | 43.7 | –
39 | CC(=C\c1ccccc1)/C=C1/NC(=O)NC1=O | > 200 | 129 | –
40 | Clc1nc(Cl)c2sc(=[Se])sc2n1 | > 200 | 8.51 | –
41 | O=C1/C(=C/c2ccc(F)cc2)CNC/C1=C\c1ccc(F)cc1 | > 15.1 | 0.288 | –
42 | O=C1c2ccc(S(=O)(=O)O)cc2C(=O)c2cc(S(=O)(=O)O)ccc21 | – | – | inactive

Row | Structure (SMILES) | EC50 [µM] | IC50 [µM] | outcome
43 | CC1CCC2CC(=O)NC(=O)CC12 (centres undefined) | > 457 | > 457 | –
44 | CCCCCCCCCCCCN1C(=O)c2ccccc2[Se]1=O (centres undefined) | > 2.75 | > 2.75 | –
45 | CCOC(=O)NNC(=O)NCc1cccc(CNC(=O)NNC(=O)OCC)c1 | > 200 | > 200 | –
46 | CCOC1C2c3cc4c(cc3CC(C#N)(c3ccccc32)N1C(=O)c1ccccc1)OCO4 (centres undefined) | – | – | inactive
47 | C#CC(O)/C=C/C(O)CCCC(O)CC#CC(O)C#CC(O)CCCC(O)/C=C/CCCC(=O)CCCCCCCCCCCCCCCC(O)C(O)C#CC(=O)O (centres undefined) | 10 | 53.7 | –
48 | Cc1ccc(S(=O)(=O)c2ccc([N+](=O)[O-])o2)cc1 | 0.02 | 0.0631 | –
49 | COc1ccccc1C1SCC(=O)N1c1ccc(-c2ccc(-n3c(-c4ccccc4)nc4ccccc4c3=O)cc2)cc1 (centres undefined) | > 200 | > 200 | –
50 | O=C(O)/C(=C/c1ccccc1[N+](=O)[O-])c1cccs1 | > 912 | 457 | –
51 | Oc1c(CN2CCOCC2)ccc2ccccc12 | > 200 | 191 | –
52 | Cc1ccc(C2=NN(C)COC2C(F)(F)F)cc1 (centres undefined) | > 28.2 | > 28.2 | –
53 | CN(C)c1ccc(C=Nc2ccc(/C=C3\C=Cc4ccccc43)cc2)cc1 | > 20.4 | > 20.4 | –
54 | CCOC(=O)CSCn1ncc2ccc([N+](=O)[O-])cc21 | – | – | inactive
55 | CSC(=Nc1ccccc1Cl)NC(=O)c1ccc(Br)cc1 | > 10.2 | > 10.2 | –
56 | CC(=O)N(C(C)=O)n1c(Cc2ccc(C)cc2)nn(C(C)=O)c1=O | > 200 | > 200 | –
57 | COC(=O)c1cc2c(cc1CC1Cc3cc4c(cc3C1)CCC4)CCC2 | > 200 | > 200 | –
58 | Clc1ccc(C2=Cc3nc2c(-c2ccccc2)c2ccc([nH]2)c(-c2ccccc2)c2nc(c(-c4ccccc4)c4ccc([nH]4)c3-c3ccccc3)C=C2)cc1 | > 200 | > 200 | –
59 | C/C(N=NS(=O)(=O)c1ccccc1)=C1\C=CC=CN1O | – | – | inactive
60 | CC1CC/C(=C\c2ccc(Cl)cc2)C2=C1C(c1ccc(Cl)cc1)N1C(=O)CSC1=N2 (centres undefined) | – | – | inactive
61 | CCOC(=O)c1c(NC(=O)c2cccs2)sc2c1CCC2 | 195 | > 200 | –
62 | CCOC(=O)CC(C)OC1CCCCO1 (centres undefined) | – | – | inactive
63 | CCCCCC=C(c1cc(C(=O)OC)c(OC)c(C(F)(F)F)c1)c1cc(C(=O)OC)c(OC)c(C(F)(F)F)c1 | > 200 | 105 | –

Row | Structure (SMILES) | EC50 [µM] | IC50 [µM] | outcome
64 | CSc1nc(C)c(C(=O)CCN2CCN(c3ccccn3)CC2)s1 | > 87.1 | 4.37 | –
65 | O=c1[nH]c(=O)n(C2CC(O)C(CO)O2)c2ncncc12 (centres undefined) | > 200 | > 200 | –
66 | N#CN=C1N=S(=O)(c2ccccc2)c2ccccc21 (centres undefined) | > 186 | 162 | –
67 | O=c1ncccn1C1OC(CO)C(O)C1F (centres undefined) | – | – | inactive
68 | CC(C)(C)C1=CC(=C(c2ccc(-c3c4nc(c(-c5ccc(C(=C6C=C(C(C)(C)C)C(=O)C(C(C)(C)C)=C6)c6cc(C(C)(C)C)c(O)c(C(C)(C)C)c6)cc5)c5ccc([nH]5)c(-c5ccc(C(=C6C=C(C(C)(C)C)C(=O)C(C(C)(C)C)=C6)c6cc(C(C)(C)C)c(O)c(C(C)(C)C)c6)cc5)c5nc(c(-c6ccc(C(=C7C=C(C(C)(C)C)C(=O)C(C(C)(C)C)=C7)c7cc(C(C)(C)C)c(O)c(C(C)(C)C)c7)cc6)c6ccc3[nH]6)C=C5)C=C4)cc2)c2cc(C(C)(C)C)c(O)c(C(C)(C)C)c2)C=C(C(C)(C)C)C1=O | > 100 | > 100 | –
69 | COc1cc([N+](=O)[O-])ccc1N1C(=O)C2c3[nH]c4ccccc4c3C3CCC(C(C)(C)C)CC3C2C1=O (centres undefined) | > 200 | 138 | –
70 | O=c1cc(NNc2ccccc2F)[nH]c(=O)[nH]1 | > 200 | 1.78 | –
71 | CCOC(=O)C1NCCc2c1[nH]c1ccccc21 (centres undefined) | > 67.6 | 44.7 | –
72 | CC(C)N(CCCNc1c2ccccc2nc2cccc([N+](=O)[O-])c12)C(C)C | > 200 | 0.0631 | –
73 | Cc1cc(O)c2c(c1)C(=O)C=C(Br)C2=O | > 100 | 1.58 | –
74 | S=c1[nH]c2ccccc2[nH]c1=S | > 200 | 26.3 | –
75 | CC(C)(C)c1ccc(-n2c3nc(=O)n(-c4ccccc4CO)c(=O)c-3cc3ccccc32)cc1 | > 200 | 23.4 | –
76 | CCCCN(CCCC)C(=O)C(=O)CC(=O)c1ccc(Br)cc1 | – | – | inactive
77 | CN1C(=O)c2ccccc2Cc2c(N3CCCC3)ncnc21 | > 17.8 | > 17.8 | –
78 | CCCCCCCCCCN=C(N)CSSCC(N)=NCCCCCCCCCC | > 200 | 16.6 | –
79 | Cc1nc(Nc2ccccc2)sc1C(=O)CC(=O)C(=O)NC12CC3CC(CC(C3)C1)C2 | > 81.3 | > 81.3 | –
80 | NCCN.O=N[O-].O=N[O-].O=N[O-].O=N[O-].[Co+3].[K+] | > 724 | 219 | –
81 | CNc1ccc2ncccc2c1[N+](=O)[O-] | > 46.8 | > 46.8 | –
82 | CC(C)(C)OC(=O)N1N=NC2C1C1CC(OCc3ccccc3)(OCc3ccccc3)C2O1 (centres undefined) | > 15.8 | > 15.8 | –
83 | CCOC(=O)CN=c1nc(SC)sc2c(C(=O)OCC)nc(Sc3ccccc3)n12 | > 60.3 | 10.7 | –
84 | Oc1cc(O)c(Oc2cccc(O)c2O)c(O)c1 | > 1000 | 38.9 | –
